How the values were obtained:
[1] = test system: 8226 human myeloma cell line; experiment: Human tumor growth inhibition, 3H-thymidine incorporation, 8226; type: cell-based; conditions: 3H-thymidine uptake, read-out: IC50 8226
Description: (§1) MCF-7 a human breast tumor cell line, and MCF-7/ADR an adriamycin resistant line of MCF-7 cells were obtained from the National Cancer Institute, Frederick, Md. NHEK a human keratinocyte cell line was obtained from Clonetic Corp., San Diego, Calif. 8226 a human myeloma cell line, 8226/MT a Mitoxantrone resistant line of 8226 cells, and 8226 ADR an adriamycin resistant line of 8226 cells were obtained from Dr. Bill Dalton, Arizona Cancer Center, Tuscon, Ariz.
(§2) Human tumor cells are trypsinized (0.05% trypsin, GIBCO), counted with a hemacytometer and seeded at a concentration of 10,000 cells/well in a 96 well microtiter plate. After allowing cells to attach to the surface overnight, the culture medium is aspirated and replaced with 100 μl of fresh medium. Test agents are diluted to determine dose response at 2× final concentration and added in quadruplicate at 100 μl/well to bring the total volume of each well to 200 μl. The microtiter plate is then incubated at 37° C. 5% CO2 overnight (18-24 hrs) before ^3 H-thymidine is added at a concentration of 0.5 μCi/well in 50 μl culture medium. The plate is incubated again for 4 hrs under the same conditions as above. Supernatant is then aspirated and 50 μl trypsin (0.05%, GIBCO) is added to each well. Cells are checked microscopically to determine detachment from surfaces, and plates are then harvested with a cell harvester (PHD, Cambridge Technology, Inc.) Filter papers corresponding to wells are placed in scintillation vials and counted to determine the amount of ^3 H-thymidine incorporated by the cells. Test agent response is compared to a positive control of cell wells with culture media only to determine the IC50. IC50 is the concentration of test compound required to inhibit fifty percent of the incorporation of ^3 H-thymidine into proliferating cells not exposed to test agent. Uptake of ^3 H-thymidine is a standard test for measuring the metabolism of cells. Cells which are actively proliferating take up ^3 H-thymidine, whereas cells that are not proliferating take up ^3 H-thymidine at much slower rates or not at all. Test agents that inhibit the uptake of ^3 H-thymidine thus slow the growth of cells.

[2] = test system: 8226/ADR adriamycin resistant line of 8226 cells; experiment: Human tumor growth inhibition, 3H-thymidine incorporation, 8226/ADR; type: cell-based; conditions: 8226/ADR vs 8226
Description: as §1, §2

human neutrophils = experiment: Neutrophil superoxide anion (O2-) release assay, PMA-stimulated; type: cell-based; conditions: Homo sapiens, Neutrophil, PMA-stimulated O2- production
Method: Neutrophils were isolated form whole blood collected from human volunteers. All reagent materials were obtained from Sigma Chemical Company with the exception of isotonic saline (Travenol Lab., Inc. Deerfield, Ill.) and lymphocyte separation medium (Organon Teknika, Durham, N.C.). Whole blood was drawn and mixed with sodium heparin (final conc. 10 units/ml) to prevent clotting. An equal volume of dextran (3.0%) in isotonic saline was added, mixed, and allowed to settle for 30 min to bind red blood cells (RBC). The supernatant was removed, underlayered with lymphocyte separation medium and centrifuged for 40 min at 400 xg in a centrifuge (Beckman GPR, Norcross, Ga.). […] The washed pellet was resuspended in 10 ml HBSS and placed on ice before counting on a hemacytometer. The neutrophil cell concentration is adjusted to 2×10^6 cells/ml with HBSS before adding 0.8 ml cells to 12×75 mm polypropylene test tubes (Fisher Scientific). Test agents are diluted to determine dose response and added at 10×final concentration at a volume of 0.1 ml/tube in duplicate. […] Tubes are then centrifuged at 900 xg for 10 min, 0.5 ml supernatant is removed and added to 0.5 ml H2 O in a microcuvette. Optical density (OD) of cytochrome c is read in a spectrophotometer (Shimadzu) at 550 nm. The ΔOD of cytochrome c is obtained between PMA-stimulated and non-stimulated tubes, and the dose responses of the test agents are compared to the positive controls (which contain HBSS in place of test agents). PMA stimulates O2^- production which reduces cytochrome c. Reducing cytochrome c increases its absorbance, and the change in OD of cytochrome c is proportional to the amount of O2^- produced by PMA stimulation. Inhibition of the O2^- burst by test compounds of the invention is seen as a reduction in the change in optical density. Inhibition is expressed as IC50 μM and is the amount of test compound that will inhibit fifty percent of the PMA-stimulated respiratory outburst, i.e. O2^- production.

P388 murine leukemia = experiment: P388 leukemia tumor assay in mice, survival time; type: in vivo, mouse
Description: P388 Leukemia Tumors. Mice were young adult, pathogen-free, BALA/c×DBA/2 F1 (i.e., CD2F1) females purchased from Charles River Laboratories. The tumor line was the P388 murine leukemia, ascites form, obtained from the National Cancer Institute (NCI) Tumor Repository (Frederick, Md.). The tumor was maintained in the serial passage in mice by periodic intraperitoneal (ip) implantation. For this experiment, 10^6 hemacytometer-counted P388 murine leukemia cells were implanted ip into mice on Day 0. The mice were randomized into one untreated control group of 20 and 15 test groups of six mice each. All drug treatment was delivered ip on the basis of the average body weight of each group. […] Body weights were recorded on Days 1, 5, 9, 11, and 18. Deaths were recorded daily. Dying mice were necropsied, and the presence or absence of ascites or splenomegaly was recorded. Drug effectiveness was assessed on the basis of the survival time. Results were expressed as a percentage of the control survival time (Survival Time=T/C×100%; T=test animals; C=control animals). The criterion for effectiveness was determined by: T/C×100≥125 percent.

[3] = test system: 8226/ADR adriamycin resistant line of 8226 cells; experiment: Human tumor growth inhibition, 3H-thymidine incorporation, 8226/ADR; type: cell-based; conditions: 3H-thymidine uptake

In the case of `CCN(CC)CC(O)CNc1ccc(NCC2CO2)c2c1C(=O)c1ccccc1C2=O` (stereo not drawn) [Compound 1b-1, 1-(3-diethylamino-2-hydroxypropylamino)-4-(2,3-epoxypropylamino)-9, 10-anthracenedione], the IC50 [1] is reported as 0.06 µM, the “Resistance Ratio (8226/ADR)” value [2] is reported as 0.26 and the IC50 (human neutrophils) is reported as greater than 25 µM. For the same compound, the “% T/C p388 Leukemia” value (P388 murine leukemia; 16 mg/kg, Q4D × 3, ip, survival time) was 140%, the “survival time of mice (in words)” value (P388 murine leukemia; all dosages and schedules) was “effectively increased the survival time” and the IC50 [3] was 0.016 µM.

— patent US5344841A, “Bis-(hydroxylakylamino)-anthraquinone inhibitors of protein kinase C” (Sphinx Pharmaceuticals Corporation, priority 1992, dated 1994)
